Consider 47 compounds from US7297700B2, “Bicycloheteroaryl compounds as P2X7 modulators and uses thereof” (Renovis, Inc., priority 2005, dated 2007).

Structures are written as SMILES.

One experiment relates to IL-1β release from THP-1 cells. Kind of experiment: IL-1β Release Assay (Alternate Method), THP-1 cells. The format is cell-based, human. The following applies: Homo sapiens; at 0.3 μM; THP-1 cells; read-out: IL-1β % inhibition. An outline of the steps:
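THP-1 cells differentiated 16 h with 100 ng/mL LPS plus 100 ng/mL IFN-γ, reprimed 2 h with 100 ng/mL LPS, pretreated 30 min with compound, then challenged 45 min with 250 uM BzATP (final). Supernatant IL-1β quantified by ELISA; percent inhibition from background-adjusted levels versus untreated cells.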
As for `CC12CC3CC(C)(C1)CC(CC(=O)Nc1ncnc4c1CCN(Cc1ccccc1)C4)(C3)C2` [Compound 341, N-(7-Benzyl-5,6,7,8-tetrahydro-pyrido[3,4-d]pyrimidin-4-yl)-2-(3,5-dimethyl-adamantan-1-yl)-acetamide], the inhibition at 0.3 µM was 25 to 50%.

As to `O=C(CC12CC3CC(CC(C3)C1)C2)Nc1ccnc2c1CCN(Cc1ccccc1)C2` [Compound 342, 2-Adamantan-1-yl-N-(7-benzyl-5,6,7,8-tetrahydro-[1,7]naphthyridin-4-yl)-acetamide], the inhibition at 0.3 µM lay within 0 to 25%.

`CC(C)(C(=O)Nc1ncnc2c1CCN(C(=O)c1c(F)cccc1F)C2)C12CC3CC(CC(C3)C1)C2` [Compound 361]: the inhibition at 0.3 µM was in the range of 0 to 25%.

Turning to `Cc1ncc2c(c1C(=O)NCC13CC4CC(CC(C4)C1)C3)CCN(Cc1ccccc1)C2` [Compound 368, 7-Benzyl-3-methyl-5,6,7,8-tetrahydro-[2,7]naphthyridine-4carboxylic acid (adamantan-1-ylmethyl)-amide], the inhibition at 0.3 µM lay in the range of 0 to 25%.

The experiment is the same for the next values; noted with them: at 0.3 μM; THP-1 cells.
With `CC12CC3CC(C)(C1)CC(C(C)(C)C(=O)Nc1ncnc4c1CCN(Cc1ccccc1)C4)(C3)C2` [Compound 343], the IL-1β % inhibition result is “+ (compound exhibited 0-25% inhibition at 0.3 μM)”.

For `CC12CC3(C)CC(C)(C1)CC(CC(=O)Nc1ncnc4c1CCN(Cc1ccccc1)C4)(C2)C3` [Compound 344], the IL-1β % inhibition result was “+ (compound exhibited 0-25% inhibition at 0.3 μM)”.

As for `CC12CC3(C)CC(C)(C1)CC(C(C)(C)C(=O)Nc1ncnc4c1CCN(Cc1ccccc1)C4)(C2)C3` [Compound 345], the IL-1β % inhibition entry is recorded as “+ (compound exhibited 0-25% inhibition at 0.3 μM)”.

As to `CC12CC3(C)CC(C)(C1)CC(C(=O)Nc1ncnc4c1CCN(Cc1ccccc1)C4)(C2)C3` [Compound 346], the IL-1β % inhibition entry is recorded as “+ (compound exhibited 0-25% inhibition at 0.3 μM)”.

Consider `CC(C)(C(=O)Nc1ncnc2c1CCN(Cc1ccc(F)cc1F)C2)C12CC3CC(CC(C3)C1)C2` [Compound 347], for which the IL-1β % inhibition result is on record as “+ (compound exhibited 0-25% inhibition at 0.3 μM)”.

On to `CC(C)(C(=O)Nc1ncnc2c1CCN(Cc1ccccc1Cl)C2)C12CC3CC(CC(C3)C1)C2` [Compound 348], for which the IL-1β % inhibition result was “+ (compound exhibited 0-25% inhibition at 0.3 μM)”.

Consider `Cc1ccccc1CN1CCc2c(ncnc2NC(=O)C(C)(C)C23CC4CC(CC(C4)C2)C3)C1` [Compound 349], for which the IL-1β % inhibition result is “+ (compound exhibited 0-25% inhibition at 0.3 μM)”.

Consider `CC(C)(C(=O)Nc1ncnc2c1CCN(Cc1ccc3c(c1)OCCO3)C2)C12CC3CC(CC(C3)C1)C2` [Compound 350], for which the IL-1β % inhibition entry was “+ (compound exhibited 0-25% inhibition at 0.3 μM)”.

As for `CC(C)(C(=O)Nc1ncnc2c1CCN(Cc1ccc3cc[nH]c3c1)C2)C12CC3CC(CC(C3)C1)C2` [Compound 351], the IL-1β % inhibition entry is listed as “+ (compound exhibited 0-25% inhibition at 0.3 μM)”.

As for `CC(C)(C(=O)Nc1ncnc2c1CCN(Cc1ccc(F)cc1)C2)C12CC3CC(CC(C3)C1)C2` [Compound 352], the IL-1β % inhibition entry was “+ (compound exhibited 0-25% inhibition at 0.3 μM)”.

With `CC(C)(C(=O)Nc1ncnc2c1CCN(S(=O)(=O)Cc1ccccc1)C2)C12CC3CC(CC(C3)C1)C2` [Compound 353], the IL-1β % inhibition entry is recorded as “+ (compound exhibited 0-25% inhibition at 0.3 μM)”.

On to `CC(C)(C(=O)Nc1ncnc2c1CCN(S(=O)(=O)c1cccc(Cl)c1)C2)C12CC3CC(CC(C3)C1)C2` [Compound 354], for which the IL-1β % inhibition entry is listed as “+ (compound exhibited 0-25% inhibition at 0.3 μM)”.

For `CC(C)(C(=O)Nc1ncnc2c1CCN(S(=O)(=O)c1ccc(F)c(F)c1)C2)C12CC3CC(CC(C3)C1)C2` [Compound 355], the IL-1β % inhibition result was “+ (compound exhibited 0-25% inhibition at 0.3 μM)”.

For `CC(C)(C(=O)Nc1ncnc2c1CCN(S(=O)(=O)Cc1ccc(Cl)c(Cl)c1)C2)C12CC3CC(CC(C3)C1)C2` [Compound 356], the IL-1β % inhibition entry is recorded as “+ (compound exhibited 0-25% inhibition at 0.3 μM)”.

Turning to `CC(C)(C(=O)Nc1ncnc2c1CCN(S(=O)(=O)Cc1ccc(Cl)cc1)C2)C12CC3CC(CC(C3)C1)C2` [Compound 357], the IL-1β % inhibition result is “+ (compound exhibited 0-25% inhibition at 0.3 μM)”.

For the compound `Cc1cccc(C(=O)N2CCc3c(ncnc3NC(=O)C(C)(C)C34CC5CC(CC(C5)C3)C4)C2)c1` [Compound 358], the IL-1β % inhibition result is recorded as “+ (compound exhibited 0-25% inhibition at 0.3 μM)”.

Consider `CC(C)(C(=O)Nc1ncnc2c1CCN(C(=O)c1cccc(C(F)(F)F)c1)C2)C12CC3CC(CC(C3)C1)C2` [Compound 359], for which the IL-1β % inhibition entry is reported as “+ (compound exhibited 0-25% inhibition at 0.3 μM)”.

`CC(C)(C(=O)Nc1ncnc2c1CCN(C(=O)c1ccc(Cl)c(Cl)c1)C2)C12CC3CC(CC(C3)C1)C2` [Compound 360]: the IL-1β % inhibition result is recorded as “+ (compound exhibited 0-25% inhibition at 0.3 μM)”.

Turning to `CC(C)(C(=O)Nc1ncnc2c1CCN(C(=O)c1c(F)cccc1Cl)C2)C12CC3CC(CC(C3)C1)C2` [Compound 362], the IL-1β % inhibition entry is listed as “+ (compound exhibited 0-25% inhibition at 0.3 μM)”.

For `CC(C)(C(=O)Nc1ncnc2c1CCN(C(=O)c1cc(F)ccc1F)C2)C12CC3CC(CC(C3)C1)C2` [Compound 363], the IL-1β % inhibition entry is recorded as “+ (compound exhibited 0-25% inhibition at 0.3 μM)”.

Consider `CC(C)(C(=O)Nc1ncnc2c1CCN(C(=O)c1cccc(Cl)c1Cl)C2)C12CC3CC(CC(C3)C1)C2` [Compound 364], for which the IL-1β % inhibition entry is given as “+ (compound exhibited 0-25% inhibition at 0.3 μM)”.

On to `CC(C)(C(=O)Nc1ncnc2c1CCN(C(=O)CC1CCCC1)C2)C12CC3CC(CC(C3)C1)C2` [Compound 365], for which the IL-1β % inhibition entry was “+ (compound exhibited 0-25% inhibition at 0.3 μM)”.

Take `CC(C)(C(=O)Nc1ncnc2c1CCN(C(=O)C1CCCCC1)C2)C12CC3CC(CC(C3)C1)C2` [Compound 366]: the IL-1β % inhibition entry is “+ (compound exhibited 0-25% inhibition at 0.3 μM)”.

For `CC(C)(C)CC(=O)N1CCc2c(ncnc2NC(=O)C(C)(C)C23CC4CC(CC(C4)C2)C3)C1` [Compound 367], the IL-1β % inhibition result is listed as “+ (compound exhibited 0-25% inhibition at 0.3 μM)”.

With `CC(C)(C(=O)Nc1ncnc2c1CCN(Cc1ccccc1F)C2)C12CC3CC(CC(C3)C1)C2` [Compound 369], the IL-1β % inhibition result was “+ (compound exhibited 0-25% inhibition at 0.3 μM)”.

In the case of `CC12CC3CC(C)(C1)CC(CC(=O)Nc1ncnc4c1CCN(Cc1ccccc1Cl)C4)(C3)C2` [Compound 370], the IL-1β % inhibition result is “++ (compound exhibited 25-50% inhibition at 0.3 μM)”.

Take `CC12CC3CC(C)(C1)CC(CC(=O)Nc1ncnc4c1CCN(Cc1ccccc1F)C4)(C3)C2` [Compound 371]: the IL-1β % inhibition entry is listed as “+++ (compound exhibited 50-75% inhibition at 0.3 μM)”.

With `Cc1ccccc1CN1CCc2c(ncnc2NC(=O)CC23CC4CC(C)(CC(C)(C4)C2)C3)C1` [Compound 372], the IL-1β % inhibition result is “+++ (compound exhibited 50-75% inhibition at 0.3 μM)”.

As for `CC12CC3CC(C)(C1)CC(CC(=O)Nc1ncnc4c1CCN(Cc1ccc5c(c1)OCCO5)C4)(C3)C2` [Compound 373], the IL-1β % inhibition result is “++++ (compound exhibited 75% or greater inhibition at 0.3 μM)”.

As to `CC12CC3CC(C)(C1)CC(CC(=O)Nc1ncnc4c1CCN(Cc1ccc(F)cc1F)C4)(C3)C2` [Compound 374], the IL-1β % inhibition result was “++ (compound exhibited 25-50% inhibition at 0.3 μM)”.

With `CC12CC3CC(C)(C1)CC(CC(=O)Nc1ncnc4c1CCN(Cc1ccc(F)cc1)C4)(C3)C2` [Compound 376], the IL-1β % inhibition result is listed as “++ (compound exhibited 25-50% inhibition at 0.3 μM)”.

As for `CC12CC3CC(C)(C1)CC(CC(=O)Nc1ncnc4c1CCN(S(=O)(=O)Cc1ccccc1)C4)(C3)C2` [Compound 377], the IL-1β % inhibition result is reported as “++++ (compound exhibited 75% or greater inhibition at 0.3 μM)”.

In the case of `CC12CC3CC(C)(C1)CC(CC(=O)Nc1ncnc4c1CCN(S(=O)(=O)Cc1ccc(Cl)c(Cl)c1)C4)(C3)C2` [Compound 378], the IL-1β % inhibition entry was “+++ (compound exhibited 50-75% inhibition at 0.3 μM)”.

As for `CC12CC3CC(C)(C1)CC(CC(=O)Nc1ncnc4c1CCN(S(=O)(=O)Cc1ccc(Cl)cc1)C4)(C3)C2` [Compound 379], the IL-1β % inhibition entry is “+++ (compound exhibited 50-75% inhibition at 0.3 μM)”.

As for `CC12CC3CC(C)(C1)CC(CC(=O)Nc1ncnc4c1CCN(S(=O)(=O)c1cccc(Cl)c1)C4)(C3)C2` [Compound 380], the IL-1β % inhibition entry is listed as “+ (compound exhibited 0-25% inhibition at 0.3 μM)”.

`CC12CC3CC(C)(C1)CC(CC(=O)Nc1ncnc4c1CCN(S(=O)(=O)c1cccc(F)c1F)C4)(C3)C2` [Compound 381]: the IL-1β % inhibition result is on record as “+ (compound exhibited 0-25% inhibition at 0.3 μM)”.

As for `Cc1cccc(C(=O)N2CCc3c(ncnc3NC(=O)CC34CC5CC(C)(CC(C)(C5)C3)C4)C2)c1` [Compound 382], the IL-1β % inhibition entry is recorded as “++ (compound exhibited 25-50% inhibition at 0.3 μM)”.

For the compound `CC12CC3CC(C)(C1)CC(CC(=O)Nc1ncnc4c1CCN(C(=O)c1cccc(C(F)(F)F)c1)C4)(C3)C2` [Compound 383], the IL-1β % inhibition result is “+ (compound exhibited 0-25% inhibition at 0.3 μM)”.

As for `CC12CC3CC(C)(C1)CC(CC(=O)Nc1ncnc4c1CCN(C(=O)CC1CCCC1)C4)(C3)C2` [Compound 384], the IL-1β % inhibition entry is reported as “++ (compound exhibited 25-50% inhibition at 0.3 μM)”.

Consider `CC12CC3CC(C)(C1)CC(CC(=O)Nc1ncnc4c1CCN(C(=O)c1ccc(Cl)c(Cl)c1)C4)(C3)C2` [Compound 385], for which the IL-1β % inhibition entry is recorded as “+ (compound exhibited 0-25% inhibition at 0.3 μM)”.

In the case of `CC12CC3CC(C)(C1)CC(CC(=O)Nc1ncnc4c1CCN(C(=O)C1CCCCC1)C4)(C3)C2` [Compound 386], the IL-1β % inhibition result was “++ (compound exhibited 25-50% inhibition at 0.3 μM)”.

Regarding `CC12CC3CC(C)(C1)CC(CC(=O)Nc1ncnc4c1CCN(C(=O)c1c(F)cccc1F)C4)(C3)C2` [Compound 387], the IL-1β % inhibition entry is recorded as “+ (compound exhibited 0-25% inhibition at 0.3 μM)”.

As for `CC(C)(C)CC(=O)N1CCc2c(ncnc2NC(=O)CC23CC4CC(C)(CC(C)(C4)C2)C3)C1` [Compound 388], the IL-1β % inhibition entry is on record as “+ (compound exhibited 0-25% inhibition at 0.3 μM)”.
